Data on ten compounds can be found in publication PMC6332183, “α-Glucosidase Inhibitors from Vauquelinia corymbosa” (Molecules, 2015).

The subject of experiment [1] is rat small intestinal α-glucosidases. As to the kind of experiment: rat small intestinal α-glucosidase inhibitory assay (pNPG). It is filed as biochemical. How it is done: (§1) Aliquots of 0–10 μL of testing materials (triplicated) were incubated for 10 min with 20 μL of an enzyme solution of yeast α-glucosidase (Sigma-Aldrich, 0.4 units/mL in PBS) or mammalian α-glucosidase (Sigma-Aldrich, 40 mg). The mammalian enzyme was separated from rat intestinal acetone powder, which was hand homogenized using 1 mL of ice-cold PBS. After sonicating during ten min, the content was centrifuged at 6400 rpm for 10 min (Microfuge Qualitron, Inc., Albany, NY, USA). The supernatant was recovered and used for the in vitro assay.
(§2) After incubation with the enzymes 10 μL of p-nitrophenyl α-D-glucopyranoside (pNPG 5 mM and 10 mM in PSB, respectively) were added and then incubated for 20 min at 37 °C. Then, absorbances were determined in a BIO-RAD microplate reader model 680 at 405 nm.

Experiment [2] deals with T1, yeast α-glucosidase (Saccharomyces cerevisiae, UniProt P53341). As to the kind of experiment: yeast α-glucosidase inhibitory assay (pNPG, spectrophotocolorimetric). It is filed as biochemical. How it is done: as §1, §2
T1 sequence (P53341 whole entry): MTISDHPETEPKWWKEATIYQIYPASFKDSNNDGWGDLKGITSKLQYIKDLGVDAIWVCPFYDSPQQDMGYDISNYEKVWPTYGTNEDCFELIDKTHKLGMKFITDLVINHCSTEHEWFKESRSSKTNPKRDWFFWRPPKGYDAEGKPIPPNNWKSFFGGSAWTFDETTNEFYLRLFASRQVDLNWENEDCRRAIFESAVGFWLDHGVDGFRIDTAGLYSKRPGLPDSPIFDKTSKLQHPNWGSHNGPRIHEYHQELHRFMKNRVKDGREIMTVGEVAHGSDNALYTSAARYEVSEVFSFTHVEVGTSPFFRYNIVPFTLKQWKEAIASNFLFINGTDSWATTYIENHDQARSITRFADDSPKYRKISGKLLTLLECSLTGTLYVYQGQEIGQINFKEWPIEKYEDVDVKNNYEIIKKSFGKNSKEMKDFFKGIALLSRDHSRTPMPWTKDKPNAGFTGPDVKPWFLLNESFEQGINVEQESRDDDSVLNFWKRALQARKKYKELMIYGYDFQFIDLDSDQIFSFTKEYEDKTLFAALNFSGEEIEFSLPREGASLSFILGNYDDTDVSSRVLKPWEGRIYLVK
The target of experiment [3] is T1, yeast α-glucosidase. As to the kind of experiment: kinetic analysis (Lineweaver-Burk) with yeast α-glucosidase. It is filed as biochemical. The conditions noted are these: Lineweaver-Burk plot.
Procedure: (§3) The mode of inhibition was determined by the Lineweaver-Burk plots. The inhibition constants were calculated using the following equation [36]: (2) v=Vmax×S/Km(1+[I]/Ki)+S(1+[I]/αKi) where v is the initial velocity in absence and presence of inhibitor; S and I are concentration of substrate and inhibitor, respectively; Vmax is the maximum velocity; Km is the Michaellis-Menten constant; Ki is the competitive inhibition constant and αKi is the uncompetitive inhibition constant. The kinetic data was analyzed using a computer program for nonlinear regressions (Graph Pad Prism 5.0, GraphPad Software, Inc., La Jolla, CA, USA).
The test system of experiment [4] is small intestinal rat α-glucosidase. As to the kind of experiment: kinetic analysis (Lineweaver-Burk) with small intestinal rat α-glucosidase.
Procedure: as §3
Experiment [5] deals with rat small intestinal α-glucosidases. More on the design: method as in doi:10.1016/j.fshw.2014.11.003. As to conditions: values taken from reference; ref [22]; cited from earlier work.
[6] abbreviates: mean ± SD of triplicate experiments, read-out: Rat Small Intestinal IC50.

Where two headings read alike, the source gives them in different places. Marks after values point to notes of the source that are not given here.

Regarding `C[C@H]1O[C@H](O[C@H]2[C@H](O)[C@@H](O)[C@@H](O[C@H]3[C@H](O)[C@@H](O)C(O)O[C@@H]3CO)O[C@@H]2CO)[C@H](O)[C@@H](O)[C@@H]1N[C@H]1C=C(CO)[C@@H](O)[C@H](O)[C@H]1O` (stereo partly shown) [Acarbose, acarbose, reference compound], the “Rat Small Intestinal Maximum Inhibition (%)” value in experiment [1] is 80.2%. For the same compound, in experiment [1] (setting [6]), the IC50 – broadly, the concentration that inhibits the measured activity by half – is 100 ± 3 µM. Also, the “Yeast Maximum Inhibition (%)” value at yeast α-glucosidase [2] was found to be 89.7%.

In the case of `N#C[C@H](O[C@@H]1O[C@H](CO)[C@@H](O)[C@H](O)[C@H]1O)c1ccccc1` [Compound 1, prunasin], the “Rat Small Intestinal % Inhibition obtained with 10.0 mM of inhibitor” value in experiment [1] is recorded as 44.5 ^d %.

With `Oc1cc(O)c2c(c1)O[C@@H](c1ccc(O)c(O)c1)[C@@H](O)C2` [Compound 2, (−)-epi-catechin], in experiment [1], the “Rat Small Intestinal % Inhibition obtained with 10.0 mM of inhibitor” value is 15.2 ^d %.

For `O=c1c(O[C@@H]2O[C@H](CO)[C@H](O)[C@H](O)[C@H]2O)c(-c2ccc(O)c(O)c2)oc2cc(O)cc(O)c12` [Compound 3, hyperoside], the “Rat Small Intestinal Maximum Inhibition (%)” value in experiment [1] is listed as 65.1%. The IC50 in experiment [1] (setting [6]) is 1980 ± 150 µM.

Take `O=c1c(O[C@@H]2O[C@H](CO)[C@@H](O)[C@H](O)[C@H]2O)c(-c2ccc(O)c(O)c2)oc2cc(O)cc(O)c12` [Compound 4, isoquercetin]: the “Rat Small Intestinal Maximum Inhibition (%)” value in experiment [1] was 71.0%. In addition, the IC50 in experiment [1] (setting [6]) stood at 1630 ± 110 µM.

`O=C(OC[C@H]1O[C@@H](Oc2c(-c3ccc(O)c(O)c3)oc3cc(O)cc(O)c3c2=O)[C@H](O)[C@@H](O)[C@H]1O)c1ccccc1` [Compound 6, quercetin-3-O-(6′′-benzoyl)-β-galactoside]: the “mode of inhibition, yeast α-glucosidase” value at yeast α-glucosidase [3] is given as “mixed-type inhibitor”. Besides, the “Rat Small Intestinal Maximum Inhibition (%)” value in experiment [1] is reported as 75.8%. In addition, the 50% inhibitory concentration (IC50) came out at 430 ± 30 µM in experiment [1] (setting [6]) and 437 µM in experiment [1] (read-out: IC50, mammalian enzyme). Besides, the “mode of inhibition, rat α-glucosidase” value in experiment [4] (Lineweaver-Burk plot) is recorded as “mixed-type inhibitor”. Further, in experiment [4] (read-out: inhibition constant Ki, rat enzyme (abstract), mixed-type inhibition), the inhibition constant Ki – broadly, the dissociation constant of the complex between target and ligand, obtained from inhibition or displacement – was determined as 212 µM.

`CC(=O)c1ccc(O[C@@H]2O[C@H](CO)[C@@H](O)[C@H](O)[C@H]2O)cc1` [Compound 7, picein]: in experiment [1], the “Rat Small Intestinal Maximum Inhibition (%)” value stood at 52.6%. Moreover, in experiment [1] (setting [6]), the half-inhibitory concentration (IC50) worked out at 10700 ± 960 µM.

`COc1ccc(O[C@@H]2O[C@H](CO)[C@@H](O)[C@H](O)[C@H]2O)cc1` [Compound 8, methylarbutin]: the “Rat Small Intestinal % Inhibition obtained with 10.0 mM of inhibitor” value in experiment [1] is given as 39.3 ^d %.

With `O=c1c(O)c(-c2ccc(O)c(O)c2)oc2cc(O)cc(O)c12` [Compound 9, quercetin], the 50% inhibitory concentration (IC50) in experiment [5] is 216 µM.

Turning to quercitrin [Compound 5], the “Rat Small Intestinal Maximum Inhibition (%)” value in experiment [1] turned out to be 59.7%. In addition, the half-inhibitory concentration (IC50) in experiment [1] (setting [6]) was 3340 ± 380 µM. Also, on yeast α-glucosidase [2], the “Yeast Maximum Inhibition (%)” value is listed as 45.0%.
